This is an account of results in PubChem BioAssay AID651979 (The Scripps Research Institute Molecular Screening Center, 2013).

The source made the active and inactive calls. How the calls were made is not given here.

Common to all, as to assay: PubChem AID 651979
One assay relates to ABHD10. The conditions noted are these: HEK293T SILAC ABPP, NHU5 probe, LC-MS/MS ratio, at 5 µM, active compounds read low.
The test system of the next assay is ABHD12. The conditions noted are these: HEK293T SILAC ABPP, NHU5 probe, LC-MS/MS ratio, at 5 µM, active compounds read low.
Another assay concerns ABHD6. Conditions: HEK293T SILAC ABPP, NHU5 probe, LC-MS/MS ratio, at 5 µM, active compounds read low.
Assay [1] concerns the target Acyl-protein thioesterase 1 (Homo sapiens) (UniProt O75608). Conditions: HEK293T SILAC ABPP, NHU5 probe, LC-MS/MS ratio; LYPLA1; at 5 µM; active compounds read low.
The target in assay [2] is Acyl-protein thioesterase 2 (Homo sapiens) (UniProt O95372). The conditions noted are these: HEK293T SILAC ABPP, NHU5 probe, LC-MS/MS ratio; LYPLA2; at 5 µM; active compounds read low.
In assay [3] the target is Acylamino-acid-releasing enzyme (Homo sapiens) (UniProt P13798). Conditions: HEK293T SILAC ABPP, NHU5 probe, LC-MS/MS ratio; APEH; at 5 µM; active compounds read low.
The subject of a further assay is CTSA. Conditions: HEK293T SILAC ABPP, NHU5 probe, LC-MS/MS ratio, at 5 µM, active compounds read low.
Another assay has as its system DDHD1. The conditions noted are these: HEK293T SILAC ABPP, NHU5 probe, LC-MS/MS ratio, at 5 µM, active compounds read low.
For assay [4], the target named is Dipeptidyl peptidase 9 (Homo sapiens) (UniProt Q86TI2). Conditions: HEK293T SILAC ABPP, NHU5 probe, LC-MS/MS ratio; DPP9; at 5 µM; active compounds read low.
In a further assay the test system is ESD. The conditions noted are these: HEK293T SILAC ABPP, NHU5 probe, LC-MS/MS ratio, at 5 µM, active compounds read low.
Assay [5] addresses Fatty acid synthase (Homo sapiens) (UniProt P49327). The conditions noted are these: HEK293T SILAC ABPP, NHU5 probe, LC-MS/MS ratio; FASN; at 5 µM; active compounds read low.
In the next assay the test system is LYPLAL1. The conditions noted are these: HEK293T SILAC ABPP, NHU5 probe, LC-MS/MS ratio, at 5 µM, active compounds read low.
Another assay concerns PLA2G4A. The conditions noted are these: HEK293T SILAC ABPP, NHU5 probe, LC-MS/MS ratio, at 5 µM, active compounds read low.
The next assay deals with PNPLA6. Conditions: HEK293T SILAC ABPP, NHU5 probe, LC-MS/MS ratio, at 5 µM, active compounds read low.
The subject of a further assay is PNPLA8. The conditions noted are these: HEK293T SILAC ABPP, NHU5 probe, LC-MS/MS ratio, at 5 µM, active compounds read low.
For the next assay, the system named is PREP. The conditions noted are these: HEK293T SILAC ABPP, NHU5 probe, LC-MS/MS ratio, at 5 µM, active compounds read low.
The target of assay [6] is Protein phosphatase methylesterase 1 (Homo sapiens) (UniProt Q9Y570). Conditions: HEK293T SILAC ABPP, NHU5 probe, LC-MS/MS ratio; PPME1; at 5 µM; active compounds read low.
The next assay concerns TPP2. Conditions: HEK293T SILAC ABPP, NHU5 probe, LC-MS/MS ratio, at 5 µM, active compounds read low.

Chain of Fatty acid synthase (Homo sapiens) (P49327 whole entry, looked up): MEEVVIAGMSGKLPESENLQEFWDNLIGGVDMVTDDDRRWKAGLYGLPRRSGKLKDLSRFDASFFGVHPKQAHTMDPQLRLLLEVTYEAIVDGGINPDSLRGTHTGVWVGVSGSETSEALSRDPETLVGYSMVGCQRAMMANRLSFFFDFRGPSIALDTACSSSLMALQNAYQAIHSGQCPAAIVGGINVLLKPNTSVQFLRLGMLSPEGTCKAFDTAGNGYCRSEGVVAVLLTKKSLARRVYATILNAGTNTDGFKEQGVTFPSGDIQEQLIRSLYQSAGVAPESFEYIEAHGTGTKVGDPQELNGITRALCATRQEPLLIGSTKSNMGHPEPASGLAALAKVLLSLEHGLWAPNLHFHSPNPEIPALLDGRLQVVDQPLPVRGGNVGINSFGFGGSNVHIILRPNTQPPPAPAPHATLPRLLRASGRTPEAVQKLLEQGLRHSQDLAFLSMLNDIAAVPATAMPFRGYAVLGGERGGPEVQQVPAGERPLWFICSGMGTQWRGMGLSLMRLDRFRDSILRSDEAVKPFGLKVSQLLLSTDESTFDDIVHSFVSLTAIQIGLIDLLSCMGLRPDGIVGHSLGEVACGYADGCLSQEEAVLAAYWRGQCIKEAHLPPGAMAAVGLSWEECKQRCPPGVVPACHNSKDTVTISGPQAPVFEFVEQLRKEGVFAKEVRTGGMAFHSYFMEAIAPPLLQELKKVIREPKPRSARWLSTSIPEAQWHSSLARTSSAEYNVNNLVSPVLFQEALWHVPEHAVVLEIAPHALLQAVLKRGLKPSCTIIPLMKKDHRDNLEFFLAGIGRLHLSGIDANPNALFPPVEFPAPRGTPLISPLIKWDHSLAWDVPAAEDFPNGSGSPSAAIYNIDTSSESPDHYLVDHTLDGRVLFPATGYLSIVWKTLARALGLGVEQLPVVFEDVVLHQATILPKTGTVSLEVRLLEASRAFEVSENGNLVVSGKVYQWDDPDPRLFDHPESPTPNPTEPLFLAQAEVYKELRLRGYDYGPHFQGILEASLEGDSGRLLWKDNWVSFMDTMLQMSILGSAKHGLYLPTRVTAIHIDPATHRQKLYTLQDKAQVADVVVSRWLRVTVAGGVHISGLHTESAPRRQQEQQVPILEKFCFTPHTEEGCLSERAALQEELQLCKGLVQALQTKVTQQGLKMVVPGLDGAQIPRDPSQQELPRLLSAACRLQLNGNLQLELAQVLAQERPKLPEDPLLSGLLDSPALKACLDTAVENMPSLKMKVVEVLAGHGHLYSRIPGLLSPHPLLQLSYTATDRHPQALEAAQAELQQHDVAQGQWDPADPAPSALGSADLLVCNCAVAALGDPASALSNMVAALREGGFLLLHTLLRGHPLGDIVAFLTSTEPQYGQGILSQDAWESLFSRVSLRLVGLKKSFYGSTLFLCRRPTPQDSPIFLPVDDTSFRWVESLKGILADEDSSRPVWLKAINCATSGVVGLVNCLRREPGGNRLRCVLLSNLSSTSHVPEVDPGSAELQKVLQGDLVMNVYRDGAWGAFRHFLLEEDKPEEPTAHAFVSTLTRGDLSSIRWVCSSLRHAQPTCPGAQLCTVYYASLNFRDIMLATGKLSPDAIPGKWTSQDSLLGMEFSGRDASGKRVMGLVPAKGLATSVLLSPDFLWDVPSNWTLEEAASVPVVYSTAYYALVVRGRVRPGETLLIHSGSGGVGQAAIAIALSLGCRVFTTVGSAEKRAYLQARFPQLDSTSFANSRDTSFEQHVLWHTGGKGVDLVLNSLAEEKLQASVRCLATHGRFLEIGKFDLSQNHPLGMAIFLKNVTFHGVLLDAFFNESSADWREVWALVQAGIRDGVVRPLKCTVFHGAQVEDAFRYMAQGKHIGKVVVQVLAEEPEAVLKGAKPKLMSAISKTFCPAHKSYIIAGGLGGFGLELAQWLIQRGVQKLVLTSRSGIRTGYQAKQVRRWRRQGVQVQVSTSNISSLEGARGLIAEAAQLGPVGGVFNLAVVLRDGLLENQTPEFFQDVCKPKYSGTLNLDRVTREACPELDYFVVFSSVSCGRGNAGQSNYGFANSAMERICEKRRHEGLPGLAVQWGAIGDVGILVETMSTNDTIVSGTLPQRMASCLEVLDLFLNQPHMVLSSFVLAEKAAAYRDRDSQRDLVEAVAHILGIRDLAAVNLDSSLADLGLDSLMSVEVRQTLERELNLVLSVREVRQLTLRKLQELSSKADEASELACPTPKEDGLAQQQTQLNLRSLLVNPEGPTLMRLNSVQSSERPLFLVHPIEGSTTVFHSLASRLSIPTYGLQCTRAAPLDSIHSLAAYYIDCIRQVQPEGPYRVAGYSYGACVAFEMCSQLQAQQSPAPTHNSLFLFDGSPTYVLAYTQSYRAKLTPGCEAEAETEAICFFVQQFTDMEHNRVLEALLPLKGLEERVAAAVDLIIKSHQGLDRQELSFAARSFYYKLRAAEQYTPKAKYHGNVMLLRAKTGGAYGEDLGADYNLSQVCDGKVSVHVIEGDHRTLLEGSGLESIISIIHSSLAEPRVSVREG
Chain of Acyl-protein thioesterase 2 (Homo sapiens) (O95372 whole entry, looked up): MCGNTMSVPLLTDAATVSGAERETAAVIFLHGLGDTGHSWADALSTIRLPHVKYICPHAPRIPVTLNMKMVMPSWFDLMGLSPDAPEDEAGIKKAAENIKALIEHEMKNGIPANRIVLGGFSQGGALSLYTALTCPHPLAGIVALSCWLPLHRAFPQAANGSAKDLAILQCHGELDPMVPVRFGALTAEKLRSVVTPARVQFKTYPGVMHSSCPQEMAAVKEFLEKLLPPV
Chain of Dipeptidyl peptidase 9 (Homo sapiens) (Q86TI2 whole entry, looked up): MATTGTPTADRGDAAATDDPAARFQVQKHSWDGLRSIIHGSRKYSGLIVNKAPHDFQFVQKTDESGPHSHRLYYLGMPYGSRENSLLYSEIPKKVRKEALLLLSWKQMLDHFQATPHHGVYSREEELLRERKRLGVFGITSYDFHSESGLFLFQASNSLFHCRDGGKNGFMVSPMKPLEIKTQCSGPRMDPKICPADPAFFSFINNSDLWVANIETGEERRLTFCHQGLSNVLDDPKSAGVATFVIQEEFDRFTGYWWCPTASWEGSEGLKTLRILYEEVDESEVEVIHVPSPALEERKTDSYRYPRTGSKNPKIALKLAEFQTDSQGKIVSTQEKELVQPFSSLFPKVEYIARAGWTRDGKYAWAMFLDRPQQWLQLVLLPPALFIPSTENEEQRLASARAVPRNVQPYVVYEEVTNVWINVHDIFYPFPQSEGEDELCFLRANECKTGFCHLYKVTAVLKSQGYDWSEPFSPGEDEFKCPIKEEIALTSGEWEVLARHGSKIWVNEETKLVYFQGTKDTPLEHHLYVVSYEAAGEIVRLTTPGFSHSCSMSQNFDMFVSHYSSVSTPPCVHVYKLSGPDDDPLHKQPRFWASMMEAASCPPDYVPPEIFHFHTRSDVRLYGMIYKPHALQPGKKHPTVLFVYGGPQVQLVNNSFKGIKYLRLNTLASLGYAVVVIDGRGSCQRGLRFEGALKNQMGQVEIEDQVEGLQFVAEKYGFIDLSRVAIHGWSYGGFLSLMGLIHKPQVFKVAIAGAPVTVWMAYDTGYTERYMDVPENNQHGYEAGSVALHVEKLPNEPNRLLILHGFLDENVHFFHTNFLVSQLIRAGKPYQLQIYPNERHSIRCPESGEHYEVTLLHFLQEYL
Chain of Protein phosphatase methylesterase 1 (Homo sapiens) (Q9Y570 whole entry, looked up): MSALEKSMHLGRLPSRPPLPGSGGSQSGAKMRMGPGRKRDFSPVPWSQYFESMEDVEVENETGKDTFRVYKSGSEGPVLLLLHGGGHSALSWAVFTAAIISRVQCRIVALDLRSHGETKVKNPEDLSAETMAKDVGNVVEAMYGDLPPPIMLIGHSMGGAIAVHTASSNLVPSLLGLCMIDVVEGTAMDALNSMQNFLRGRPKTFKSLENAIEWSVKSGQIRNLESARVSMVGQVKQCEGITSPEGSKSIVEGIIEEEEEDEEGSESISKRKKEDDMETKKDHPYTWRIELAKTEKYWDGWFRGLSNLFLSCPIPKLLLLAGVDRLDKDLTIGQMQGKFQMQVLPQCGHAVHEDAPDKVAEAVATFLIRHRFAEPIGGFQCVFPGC
Chain of Acylamino-acid-releasing enzyme (Homo sapiens) (P13798 whole entry, looked up): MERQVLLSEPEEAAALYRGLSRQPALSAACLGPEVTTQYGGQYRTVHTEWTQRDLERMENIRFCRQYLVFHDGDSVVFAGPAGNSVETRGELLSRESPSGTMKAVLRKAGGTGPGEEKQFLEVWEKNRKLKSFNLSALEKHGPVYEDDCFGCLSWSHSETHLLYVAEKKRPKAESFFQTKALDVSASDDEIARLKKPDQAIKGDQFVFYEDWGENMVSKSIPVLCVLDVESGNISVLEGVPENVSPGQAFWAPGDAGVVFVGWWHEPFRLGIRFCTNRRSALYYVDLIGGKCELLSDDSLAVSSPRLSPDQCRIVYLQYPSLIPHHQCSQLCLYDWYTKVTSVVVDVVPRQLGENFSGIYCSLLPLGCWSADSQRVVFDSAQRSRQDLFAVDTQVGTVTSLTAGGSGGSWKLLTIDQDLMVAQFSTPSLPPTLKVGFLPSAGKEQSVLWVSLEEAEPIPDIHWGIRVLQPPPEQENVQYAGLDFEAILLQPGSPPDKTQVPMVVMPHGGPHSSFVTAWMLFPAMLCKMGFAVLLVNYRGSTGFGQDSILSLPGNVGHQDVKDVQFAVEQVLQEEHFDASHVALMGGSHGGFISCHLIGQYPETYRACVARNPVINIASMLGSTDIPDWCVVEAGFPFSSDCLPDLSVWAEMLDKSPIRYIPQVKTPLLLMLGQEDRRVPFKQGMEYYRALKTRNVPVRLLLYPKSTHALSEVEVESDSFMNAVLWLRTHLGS
Chain of Acyl-protein thioesterase 1 (Homo sapiens) (O75608 whole entry, looked up): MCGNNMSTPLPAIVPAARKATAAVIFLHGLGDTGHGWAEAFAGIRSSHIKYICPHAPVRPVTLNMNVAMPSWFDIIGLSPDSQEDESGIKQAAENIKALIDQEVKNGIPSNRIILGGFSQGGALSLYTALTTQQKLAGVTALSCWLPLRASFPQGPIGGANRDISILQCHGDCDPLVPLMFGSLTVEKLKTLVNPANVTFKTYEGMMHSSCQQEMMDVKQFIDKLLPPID

Regarding `O=C(CN1CCN(C(=O)c2ccco2)CC1)Nc1cc(C(F)(F)F)ccc1Cl`, the SILAC ratio (compound/DMSO) in the assay on ABHD10 was 1.1 (inactive); in the assay on ABHD12 it was 1.43 (inactive); with ABHD6, 1.25 (inactive); in assay [1] it was 0.21; in assay [2], 1.1 (inactive); in assay [3] it was 1.22 (inactive). Further, the SILAC ratio (compound/DMSO) is 1.17 (inactive) in the assay with CTSA; 1.06 (inactive) in the assay with DDHD1; 1.25 (inactive) in assay [4]; 1.08 (inactive) in the assay with ESD; 1.14 (inactive) in assay [5]; 1.33 (inactive) in the assay with LYPLAL1. Moreover, the SILAC ratio (compound/DMSO) with PLA2G4A was 1.43 (inactive); in the assay with PNPLA6, 1.2 (inactive); with PNPLA8, 0.97 (inactive); in the assay with PREP, 1.1 (inactive); in assay [6], 1.08 (inactive); in the assay with TPP2, 1.1 (inactive).
